Tests used:
Format in all cases: biochemical
Trk C = Trk C (Homo sapiens, UniProt Q16288); experiment: HotSpot kinase assay against Trk C; conditions: HotSpot 33P assay, ATP 10 μM-30 μM
Experimental: (§1) Kinase assays were performed using test compounds against a panel of Trk kinases: Trk A; Trk B; and Trk C. Each compound was tested at a concentration of 0.1 μM in single duplicate mode against the three kinases. Compounds were prepared as 10 mM stock solutions in DMSO prior to use in the assay. The control compound, staurosporine, was tested at 10 concentrations with three-fold serial dilution starting at 20 μM. IC50 values and curve fits were obtained using Prism (GraphPad Software). IC50 values were determined for staurosporine for comparison.
(§2) The screening was performed using the “HotSpot” assay platform. The assay measures the conversion of a peptide substrate to ^33P-labelled phosphorylated product. Briefly, specific kinase/substrate pairs along with required cofactors were prepared in reaction buffer. Specifically, the substrate was prepared in reaction buffer (20 mM Hepes, pH 7.5; 10 mM MgCl2; 1 mM EGTA; 0.02% Brij35; 0.02 mg/mL BSA; 0.1 mM Na3VO4; 2 mM DTT; 1% DMSO), followed by delivery of any required cofactor to the resulting substrate solution. The corresponding kinase was delivered into the substrate solution and the reaction mixture was mixed gently. Compound was delivered into the reaction mixture, followed 15-20 min later by addition of a mixture of ATP (Sigma, St. Louis Mo.) and ^33P ATP (specific activity 0.01 μCi/μL final; Perkin Elmer, Waltham, Mass.) to a final concentration of 10 μM-30 μM to initiate the reaction. Reactions were carried out at RT for 120 min, followed by spotting of the reactions onto P81 ion exchange filter paper (Whatman #3698-915; Whatman Inc., Piscataway, N.J.). Unbound phosphate was removed by extensive washing of filters in 0.75% phosphoric acid. […] The percent of enzyme inhibition was calculated based on the percent of remaining kinase activity.

activated IR = target: T1, activated IR (Homo sapiens, UniProt P06213); experiment: In vitro IR enzymatic assay (ADP-Glo); conditions: ATP 50 μM; for inhibition at 1 µM: compound 1 μM; for inhibition at 3 µM: compound 3 μM; for inhibition at 30 µM: compound 30 μM
T1 construct: purchased Millipore 14-803
T1 sequence (P06213 28-1382): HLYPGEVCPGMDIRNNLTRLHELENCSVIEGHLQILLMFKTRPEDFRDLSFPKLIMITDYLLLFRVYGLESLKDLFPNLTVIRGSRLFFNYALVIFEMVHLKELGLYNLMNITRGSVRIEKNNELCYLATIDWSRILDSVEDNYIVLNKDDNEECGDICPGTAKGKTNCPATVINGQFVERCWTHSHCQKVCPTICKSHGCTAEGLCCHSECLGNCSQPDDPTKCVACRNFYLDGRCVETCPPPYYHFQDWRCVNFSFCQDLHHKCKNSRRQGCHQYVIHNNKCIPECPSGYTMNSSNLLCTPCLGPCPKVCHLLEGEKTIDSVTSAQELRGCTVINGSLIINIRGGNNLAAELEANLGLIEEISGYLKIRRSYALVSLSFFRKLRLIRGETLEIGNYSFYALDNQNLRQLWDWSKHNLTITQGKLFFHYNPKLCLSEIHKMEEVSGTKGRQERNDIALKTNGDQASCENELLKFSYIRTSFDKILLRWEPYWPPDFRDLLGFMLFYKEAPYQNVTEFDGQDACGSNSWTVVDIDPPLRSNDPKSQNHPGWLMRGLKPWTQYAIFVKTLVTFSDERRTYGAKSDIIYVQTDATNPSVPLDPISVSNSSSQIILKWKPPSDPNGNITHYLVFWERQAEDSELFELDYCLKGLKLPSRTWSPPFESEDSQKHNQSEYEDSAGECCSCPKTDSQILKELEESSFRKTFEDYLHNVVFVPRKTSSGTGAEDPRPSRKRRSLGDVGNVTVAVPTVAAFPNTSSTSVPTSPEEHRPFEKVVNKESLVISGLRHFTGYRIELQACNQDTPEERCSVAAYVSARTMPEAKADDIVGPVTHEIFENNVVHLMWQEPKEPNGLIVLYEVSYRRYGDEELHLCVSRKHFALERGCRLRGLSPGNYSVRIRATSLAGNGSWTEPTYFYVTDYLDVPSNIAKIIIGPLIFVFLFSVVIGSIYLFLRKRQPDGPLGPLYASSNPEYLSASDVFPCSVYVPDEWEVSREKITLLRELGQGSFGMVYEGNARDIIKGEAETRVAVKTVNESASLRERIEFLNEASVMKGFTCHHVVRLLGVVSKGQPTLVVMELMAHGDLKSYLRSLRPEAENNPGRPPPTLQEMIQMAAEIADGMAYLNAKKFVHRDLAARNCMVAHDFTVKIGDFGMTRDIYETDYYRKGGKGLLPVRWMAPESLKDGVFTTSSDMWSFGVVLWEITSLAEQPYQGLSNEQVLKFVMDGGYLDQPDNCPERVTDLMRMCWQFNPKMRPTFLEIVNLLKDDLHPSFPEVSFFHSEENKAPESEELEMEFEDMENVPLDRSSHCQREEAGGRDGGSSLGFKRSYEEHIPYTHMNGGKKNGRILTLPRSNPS
Experimental: (§3) Inhibition of IGF-1R and IR kinases by compounds described herein were tested. The IC50 values were measured in vitro using an ADP-Glo kinase assay Kit (Promega). For the IGF-1R assay, active recombinant IGF-1R (Millipore #14-802) was used at 1 ng/reaction, the substrate IGF-1R tide (Millipore #12-527) was used at 125 μM and ATP was used at 100 μM. For the IR assay, active recombinant IR (Millipore #14-803) was used at 1 ng/reaction, the substrate Axl tide (Millipore #12-516) was used at 125 μM and ATP at 50 μM. Kinase reactions in both assays were conducted at 30° C. for 20 min with increasing concentrations of the test compounds.
(§4) The assay results as the percent inhibition of binding are presented in Tables B2 and B3 for IGF-1R and IR respectively.

Trk A = Trk A (Homo sapiens, UniProt P04629); experiment: HotSpot kinase assay against Trk A; conditions: HotSpot 33P assay, ATP 10 μM-30 μM
Chain of Trk A (P04629 33-796): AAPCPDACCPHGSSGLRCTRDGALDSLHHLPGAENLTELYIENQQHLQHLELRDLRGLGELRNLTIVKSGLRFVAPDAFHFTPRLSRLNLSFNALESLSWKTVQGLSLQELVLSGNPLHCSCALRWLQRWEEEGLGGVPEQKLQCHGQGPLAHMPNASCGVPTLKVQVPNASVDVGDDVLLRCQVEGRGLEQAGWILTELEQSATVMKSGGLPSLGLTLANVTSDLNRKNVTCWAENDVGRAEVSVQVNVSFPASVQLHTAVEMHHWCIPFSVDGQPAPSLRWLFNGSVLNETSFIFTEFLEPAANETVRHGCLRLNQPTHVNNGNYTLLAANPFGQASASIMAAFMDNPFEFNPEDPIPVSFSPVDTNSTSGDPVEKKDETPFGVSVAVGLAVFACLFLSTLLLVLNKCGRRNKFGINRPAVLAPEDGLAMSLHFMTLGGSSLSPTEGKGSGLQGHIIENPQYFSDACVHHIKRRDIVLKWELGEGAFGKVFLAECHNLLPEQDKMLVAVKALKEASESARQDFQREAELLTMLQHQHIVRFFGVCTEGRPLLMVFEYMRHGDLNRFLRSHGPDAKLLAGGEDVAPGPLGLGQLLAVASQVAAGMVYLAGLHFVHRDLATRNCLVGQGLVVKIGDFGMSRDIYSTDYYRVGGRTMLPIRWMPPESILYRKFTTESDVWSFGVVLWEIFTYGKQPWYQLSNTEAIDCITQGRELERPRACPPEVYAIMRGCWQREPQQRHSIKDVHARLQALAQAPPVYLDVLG
Experimental: as §1, §2

activated IGF-1R = target: T2, activated IGF-1R (Homo sapiens, UniProt P08069); experiment: In vitro IGF-1R enzymatic assay (ADP-Glo); conditions: ATP 100 μM; for inhibition at 1 µM: compound 1 μM; for inhibition at 3 µM: compound 3 μM; for inhibition at 10 µM: compound 10 μM; for inhibition at 30 µM: compound 30 μM
T2 construct: purchased Millipore 14-802
T2 sequence (P08069 31-1367): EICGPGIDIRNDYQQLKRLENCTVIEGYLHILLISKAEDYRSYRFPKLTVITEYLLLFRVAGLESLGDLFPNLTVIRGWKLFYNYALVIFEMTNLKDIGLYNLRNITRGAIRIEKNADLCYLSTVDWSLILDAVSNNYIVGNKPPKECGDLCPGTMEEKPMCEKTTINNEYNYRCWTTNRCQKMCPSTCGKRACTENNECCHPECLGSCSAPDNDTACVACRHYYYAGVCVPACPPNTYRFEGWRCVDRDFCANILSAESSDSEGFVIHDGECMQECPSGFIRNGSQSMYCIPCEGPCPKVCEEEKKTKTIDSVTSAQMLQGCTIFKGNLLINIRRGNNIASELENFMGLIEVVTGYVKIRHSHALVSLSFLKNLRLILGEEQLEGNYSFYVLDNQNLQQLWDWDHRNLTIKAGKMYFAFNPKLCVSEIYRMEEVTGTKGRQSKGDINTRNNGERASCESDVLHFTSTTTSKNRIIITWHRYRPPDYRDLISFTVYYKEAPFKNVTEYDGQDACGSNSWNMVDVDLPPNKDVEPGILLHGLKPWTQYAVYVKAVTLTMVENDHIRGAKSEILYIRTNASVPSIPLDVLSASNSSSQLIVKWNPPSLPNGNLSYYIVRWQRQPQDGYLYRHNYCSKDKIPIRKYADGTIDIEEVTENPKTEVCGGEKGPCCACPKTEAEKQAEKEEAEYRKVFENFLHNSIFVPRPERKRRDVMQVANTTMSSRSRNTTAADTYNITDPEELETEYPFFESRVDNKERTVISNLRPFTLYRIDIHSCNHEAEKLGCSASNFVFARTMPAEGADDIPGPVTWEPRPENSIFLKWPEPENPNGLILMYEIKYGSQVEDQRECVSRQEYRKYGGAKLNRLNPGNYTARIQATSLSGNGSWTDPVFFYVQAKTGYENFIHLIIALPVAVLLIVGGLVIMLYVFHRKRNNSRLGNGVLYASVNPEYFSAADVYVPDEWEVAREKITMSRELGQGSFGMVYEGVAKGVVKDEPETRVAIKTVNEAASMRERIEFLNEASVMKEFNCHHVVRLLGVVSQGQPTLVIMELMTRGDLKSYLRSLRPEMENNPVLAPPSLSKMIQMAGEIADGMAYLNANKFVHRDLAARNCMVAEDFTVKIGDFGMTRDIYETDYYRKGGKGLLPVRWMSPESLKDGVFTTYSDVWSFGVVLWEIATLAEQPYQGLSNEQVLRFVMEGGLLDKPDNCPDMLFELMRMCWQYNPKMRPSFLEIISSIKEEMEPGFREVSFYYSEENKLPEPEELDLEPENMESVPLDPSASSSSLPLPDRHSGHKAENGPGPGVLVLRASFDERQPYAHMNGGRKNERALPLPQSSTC
Experimental: as §3, §4

Trk B = Trk B (Homo sapiens, UniProt Q16620); experiment: HotSpot kinase assay against Trk B; conditions: HotSpot 33P assay, ATP 10 μM-30 μM
Chain of Trk B (Q16620 32-822): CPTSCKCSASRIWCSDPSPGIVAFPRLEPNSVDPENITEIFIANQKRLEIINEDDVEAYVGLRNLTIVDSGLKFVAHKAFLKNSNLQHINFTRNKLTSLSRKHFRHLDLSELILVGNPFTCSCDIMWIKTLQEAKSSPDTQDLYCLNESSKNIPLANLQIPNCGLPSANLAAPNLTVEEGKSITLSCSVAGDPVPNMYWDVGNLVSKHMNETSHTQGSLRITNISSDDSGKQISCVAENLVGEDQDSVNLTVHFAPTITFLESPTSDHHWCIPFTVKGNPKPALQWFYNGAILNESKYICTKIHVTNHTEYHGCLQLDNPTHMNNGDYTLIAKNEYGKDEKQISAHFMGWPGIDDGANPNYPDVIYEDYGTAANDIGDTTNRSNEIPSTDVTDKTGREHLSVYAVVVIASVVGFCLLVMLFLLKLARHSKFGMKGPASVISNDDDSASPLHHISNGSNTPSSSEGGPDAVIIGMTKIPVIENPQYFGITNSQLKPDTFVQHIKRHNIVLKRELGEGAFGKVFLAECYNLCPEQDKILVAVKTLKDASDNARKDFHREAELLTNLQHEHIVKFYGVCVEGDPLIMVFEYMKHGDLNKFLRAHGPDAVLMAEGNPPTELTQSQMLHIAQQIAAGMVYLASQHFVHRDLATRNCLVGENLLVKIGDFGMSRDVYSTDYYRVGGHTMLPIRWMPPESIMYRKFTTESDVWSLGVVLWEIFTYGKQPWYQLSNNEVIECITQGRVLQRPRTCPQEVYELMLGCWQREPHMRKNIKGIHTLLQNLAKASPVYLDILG
Experimental: as §1, §2

Chain of Trk C (Q16288 32-839): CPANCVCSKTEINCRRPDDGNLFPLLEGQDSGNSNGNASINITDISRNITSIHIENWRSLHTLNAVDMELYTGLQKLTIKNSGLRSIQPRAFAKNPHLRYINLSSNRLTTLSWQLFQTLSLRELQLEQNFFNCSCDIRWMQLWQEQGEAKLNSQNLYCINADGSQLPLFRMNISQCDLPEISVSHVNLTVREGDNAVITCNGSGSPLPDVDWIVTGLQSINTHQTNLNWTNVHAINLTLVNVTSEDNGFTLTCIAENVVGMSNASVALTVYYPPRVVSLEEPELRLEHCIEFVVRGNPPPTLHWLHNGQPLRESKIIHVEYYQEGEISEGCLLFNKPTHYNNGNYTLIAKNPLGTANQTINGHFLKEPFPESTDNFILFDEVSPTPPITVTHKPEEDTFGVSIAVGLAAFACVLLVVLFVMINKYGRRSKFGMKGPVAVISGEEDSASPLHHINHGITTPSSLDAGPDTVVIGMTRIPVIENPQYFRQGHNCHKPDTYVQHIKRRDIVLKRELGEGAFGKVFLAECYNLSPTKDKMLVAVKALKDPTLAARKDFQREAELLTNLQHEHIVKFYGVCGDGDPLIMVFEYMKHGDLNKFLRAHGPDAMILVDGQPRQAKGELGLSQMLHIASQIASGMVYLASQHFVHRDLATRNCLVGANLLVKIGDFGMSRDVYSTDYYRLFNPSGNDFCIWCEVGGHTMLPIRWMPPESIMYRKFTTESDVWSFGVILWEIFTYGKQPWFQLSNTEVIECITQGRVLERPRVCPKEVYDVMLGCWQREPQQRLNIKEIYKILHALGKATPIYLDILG

Structure (SMILES)	IC50 (Trk C) [nM]	inhibition at 1 µM (activated IR) [%]	IC50 (Trk A) [nM]	inhibition at 1 µM (activated IGF-1R) [%]	IC50 (Trk B) [nM]	inhibition at 3 µM (activated IR) [%]	inhibition at 30 µM (activated IR) [%]	inhibition at 3 µM (activated IGF-1R) [%]	inhibition at 10 µM (activated IGF-1R) [%]	inhibition at 30 µM (activated IGF-1R) [%]
CN1CCN(C(=O)[C@H]2CCCN2c2nc3c(c(Nc4cc(C5CCCC5)n[nH]4)n2)CCC3)CC1=O [136a, 4-[(2R)-1-[4-[(3-cyclopentyl-1H-pyrazol-5-yl)amino]-6,7-dihydro-5H-cyclopenta[d]pyrimidin-2-yl]pyrrolidine-2-carbonyl]-1-methyl-piperazin-2-one]	83	64	237	72	113	–	–	–	–	–
CN1CCN(C(=O)[C@@H]2CCCN2c2nc3c(c(Nc4cc(C5CCCC5)n[nH]4)n2)CCC3)CC1=O [136b, 4-[(2S)-1-[4-[(3-cyclopentyl-1H-pyrazol-5-yl)amino]-6,7-dihydro-5H-cyclopenta[d]pyrimidin-2-yl]pyrrolidine-2-carbonyl]-1-methyl-piperazin-2-one]	42.4	-2	1730	15	106	21	72	12	28	63
CC(=O)N1CCN(C(=O)[C@@H]2CCCN2c2nc3c(c(Nc4cc(C5CCCC5)n[nH]4)n2)CCC3)CC1 [137b, 1-[4-[(2S)-1-[4-[(3-cyclopentyl-1H-pyrazol-5-yl)amino]-6,7-dihydro-5H-cyclopenta[d]pyrimidin-2-yl]pyrrolidine-2-carbonyl]piperazin-1-yl]ethanone]	110	19	1910	10	265	9	60	-1	15	43
CC(C)c1cc(Nc2nc(N3CCC[C@@H]3C(=O)N3CCCC3)nc3c2CCC3)n[nH]1 [138a, (R)-(1-(4-((5-isopropyl-1H-pyrazol-3-yl)amino)-6,7-dihydro-5H-cyclopenta[d]pyrimidin-2-yl)pyrrolidin-2-yl)(pyrrolidin-1-yl)methanone]	105	37	878	–	246	61	96	62	83	95
CC(C)c1cc(Nc2nc(N3CCC[C@H]3C(=O)N3CCCC3)nc3c2CCC3)n[nH]1 [138b, (S)-(1-(4-((5-isopropyl-1H-pyrazol-3-yl)amino)-6,7-dihydro-5H-cyclopenta[d]pyrimidin-2-yl)pyrrolidin-2-yl)(pyrrolidin-1-yl)methanone]	1.4	21	141	–	5	46	92	57	80	94
CC1(C)CCN(C(=O)[C@H]2CCCN2c2nc3c(c(Nc4cc(C5CCCC5)n[nH]4)n2)CCC3)CC1 [141a, (R)-(1-(4-((5-cyclopentyl-1H-pyrazol-3-yl)amino)-6,7-dihydro-5H-cyclopenta[d]pyrimidin-2-yl)pyrrolidin-2-yl)(4,4-dimethylpiperidin-1-yl)methanone]	146	17	135	27	231	47	97	47	74	96

Reference: patent publication US20170137410A1, “FUSED CYCLOALKYL-PYRIMIDINE COMPOUNDS AND USES THEREOF” (Medivation Technologies, Inc., priority 2014, published 2017)
